# Test results reported in patent publication US9408831B2, “Methods for treating respiratory viral infection” (Celgene Corporation, priority 2010, dated 2016).
# “Also recorded” adds a separate entry of the source.
# Legend:
# Type in all cases: in vivo, mice
# [1] = tested on: influenza X31 strain (H3N2); assay: Total viable cell counts in the airway (BAL) and lung tissue, trypan blue exclusion; conditions: 100 μg/mouse i.p. daily
# [2] = tested on: influenza X31 strain (H3N2); assay: T cell recruitment (CD4, CD8 surface markers) by flow cytometry
# [3] = tested on: influenza X31 strain (H3N2)
# [4] = tested on: influenza X31 strain (H3N2); conditions: day 7
# [5] = tested on: influenza X31 strain (H3N2); conditions: lung homogenates, FIG. 9
# [6] = tested on: influenza X31 strain (H3N2); assay: Macrophages and neutrophils in airspaces and lung by flow cytometry
# [7] = early (day 3), 100 μg/mouse i.p. daily, FIG. 5
# [8] = day 7, between the animal groups
smiles,measurement,setting,value
COc1ccc(C(CC(N)=O)N2Cc3ccccc3C2=O)cc1OC (stereo not shown) [Compound 1],"cellular infiltrate into the airway (BAL), total viable cells","[1]; […], FIG. 2",significantly reduced the cellular infiltrate
same,cell counts in the airway (BAL fluid) relative to infected mice not treated,[1]; day 3,less than half
same,reduction of cellular infiltrate in the lung parenchyma,"[1]; day 3 or day 7, FIG. 2",not observed
same,reduction of cellular infiltrate into the airway (BAL),"[1]; day 7, FIG. 2",not observed
same,CD8+ T cells,"[2]; any time point analyzed (day 3, day 7)",No difference
same,early CD4+ T cell recruitment to the airways (BAL),"[2]; day 3, 100 μg/mouse i.p. daily, FIG. 5",reduced
same,T cell recruitment / later T cell populations (CD4),"[2]; day 7, airway and lung, FIG. 6",no differences; also recorded: did not affect later T cell populations
same,CD4+ T cells in the lung parenchyma,[2]; [7],corresponding accumulation
same,T cell recruitment,[2]; [7],reduced T cell recruitment; also recorded: affected early T cell recruitment
same,weight loss (percent original weight),"[3]; 100 μg/mouse i.p. daily days 0-6, vs vehicle control and untreated, FIG. 1",significantly reduced weight loss
same,visible health appearance,[3]; controls hunched and cachexic on day 5,appeared visibly in better health
same,CD8+ T cells cytokine expression,[4],remained unchanged
same,CD4+ T cells producing IFNγ in the lung tissue,"[4]; vs untreated mice and vehicle controls, FIG. 7",partial reduction
same,recovered viral titer,[5]; early stages of viral replication (day 3),blunted the recovered viral titer
same,peak viral load,[5]; 100 μg/mouse i.p. daily,reduced peak viral load
same,proportion of macrophages among cells recovered from the airspaces,"[6]; […], 100 μg/mouse i.p. daily, FIG. 3",higher proportion
same,"neutrophils (CD11c+ and Ly6g+) in the airspaces, reduction in total cells","[6]; day 3, 100 μg/mouse i.p. daily, FIG. 4",primarily associated with neutrophils
same,"number of macrophages, all sites",[6]; [8],no significant differences
same,"number of neutrophils, all sites",[6]; [8],no significant differences
